# Reference: ChEMBL document CHEMBL1123891, “Antimalarial activity of 2-(substituted amino)-4,6-bis(trichloromethyl)-1,3,5-triazines and N-(chlorophenyl)-N'-[4-(substituted amino)-6-(trichloromethyl)-1,3,5-triazin-2-yl]guanidines” (1987)
# Where “and” joins values, the source holds several entries; their conditions need not be identical. Identical values can stand only once.
# Columns and labels:
# [1] = tested on: Gallus gallus; assay: Mean survival time was determined against Plasmodium gallinaceum treated chicks after (subcutaneously) administration of 240 mg/kg; assay type: functional; settings: route subcutaneous
# [2] = tested on: Mus musculus; assay: Mean survival time was determined against Plasmodium berghei treated mice (Mus musculus) after (subcutaneously) administration of 160 mg/kg; assay type: functional; set-up: unit not given beside the values; settings: route subcutaneous
# [3] = tested on: Mus musculus; assay: (§1) Mean survival time was determined against Plasmodium berghei treated mice (Mus musculus) after (subcutaneously) administration of 320 mg/kg; assay type: functional; set-up: unit not given beside the values; settings: route subcutaneous
# [4] = tested on: Mus musculus; assay: Mean survival time was determined against Plasmodium berghei treated mice (Mus musculus) after (subcutaneous) administration of 640 mg/kg; assay type: functional; set-up: unit not given beside the values
# [5] = tested on: Mus musculus; assay: (§2) Mean survival time was determined against Plasmodium berghei treated mice (Mus musculus) after (subcutaneously) administration of 80 mg/kg; assay type: functional; settings: route subcutaneous
# [6] = tested on: Mus musculus; assay: (§3) Mean survival time was determined against Plasmodium berghei treated mice (Mus musculus) after (subcutaneously) administration of 20 mg/kg; assay type: functional; settings: route subcutaneous
# [7] = species: Mus musculus; assay: Dose required for 90% suppression of the parasitaemia in Plasmodium berghei treated mice (Mus musculus) relative to control was determined; assay type: functional
# [8] = tested on: Mus musculus; assay: (§4) Mean survival time was determined against Plasmodium berghei treated mice (Mus musculus) after (subcutaneously) administration of 40 mg/kg; assay type: functional; settings: route subcutaneous
# [9] = tested on: Gallus gallus; assay: Mean survival time was determined against Plasmodium gallinaceum treated chicks after (subcutaneous) administration of 120 mg/kg; assay type: functional
# [10] = tested on: Mus musculus; assay: Mean survival time was determined against Plasmodium berghei treated mice (Mus musculus) after (subcutaneous) administration of 160 mg/kg; assay type: functional; set-up: unit not given beside the values
# [11] = tested on: Mus musculus; assay: as §3; assay type: functional; set-up: unit not given beside the values; settings: route subcutaneous
# [12] = tested on: Mus musculus; assay: Mean survival time was determined against Plasmodium berghei treated mice (Mus musculus) after (subcutaneous) administration of 320 mg/kg; assay type: functional
# [13] = tested on: Mus musculus; assay: as §4; assay type: functional; set-up: unit not given beside the values; settings: route subcutaneous
# [14] = tested on: Mus musculus; assay: as §2; assay type: functional; set-up: unit not given beside the values; settings: route subcutaneous
# [15] = tested on: Gallus gallus; assay: Mean survival time was determined against Plasmodium gallinaceum treated chicks after (subcutaneously) administration of 120 mg/kg; assay type: functional; settings: route subcutaneous
# [16] = tested on: Mus musculus; assay: Mean survival time was determined against Plasmodium berghei treated mice (Mus musculus) after (subcutaneously) administration of 640 mg/kg; assay type: functional; settings: route subcutaneous
# [17] = tested on: Mus musculus; assay: as §1; assay type: functional; settings: route subcutaneous
# [18] = tested on: Gallus gallus; assay: Mean survival time was determined against Plasmodium gallinaceum treated chicks after (subcutaneously) administration of 60 mg/kg; assay type: functional; settings: route subcutaneous
# [19] = tested on: Gallus gallus; assay: Mean survival time was determined against Plasmodium gallinaceum treated chicks after (subcutaneously) administration of 100 mg/kg; assay type: functional; settings: route subcutaneous
# [20] = tested on: Gallus gallus; assay: Mean survival time was determined against Plasmodium gallinaceum treated chicks after (subcutaneous) administration of 240 mg/kg; assay type: functional
# [21] = tested on: Mus musculus; assay: Mean survival time was determined against Plasmodium berghei treated mice (Mus musculus) after (subcutaneous) administration of 20 mg/kg
SMILES,Delta MST [1],Delta MST [2],Delta MST [3],Delta MST [4],Delta MST [5],Delta MST [6],SD90 [7] [mg/kg],Delta MST ([10]; 160 mg/kg),Delta MST [11],Delta MST [12],Delta MST [13],Delta MST [14],Delta MST ([2]; 160 mg/kg),Delta MST ([8]; 40 mg/kg),further results
ClC(Cl)(Cl)c1nc(NCCCN2CCCC2)nc(C(Cl)(Cl)Cl)n1,0.3,1,1.6,3.8,0.2,0,86,–,–,–,–,–,–,–,Delta MST [8]: 0
N=C(Nc1ccc(Cl)cc1)Nc1nc(NCCCN2CCCCC2)nc(C(Cl)(Cl)Cl)n1,–,–,–,7.9 and 8.1,–,–,208,3.1 and 3.9,0.3,5.5,1.7 and 1.5,2.7,–,–,Delta MST [9]: 9.1
CCN1CCCC(Nc2nc(/N=C(\N)Nc3ccc(Cl)cc3)nc(C(Cl)(Cl)Cl)n2)C1 (configuration not stated),–,–,5.3,–,4.1,0.3,97,–,–,–,–,–,4.7 and 2.3,0.7 and 1.1,Delta MST ([4]; 640 mg/kg): 10.3 and 9.9
N=C(Nc1ccc(Cl)cc1)Nc1nc(NCCCN2CCCC2)nc(C(Cl)(Cl)Cl)n1,14.4,–,–,–,1.9,0.5,235,–,–,–,–,–,3.7 and 2.3,–,Delta MST [15]: 11.7; Delta MST [16]: 10.1 and 9.9; Delta MST [17]: 7.5; Delta MST [8]: 0.5
ClC(Cl)(Cl)c1nc(NCCCCN2CCCC2)nc(C(Cl)(Cl)Cl)n1,–,2.8,4.2,–,0.4,0.2,80,–,–,–,–,–,–,0.2 and 0.3,Delta MST [18]: 0.1; Delta MST [10]: 2.1
CCN1CCCC(Nc2nc(C(Cl)(Cl)Cl)nc(C(Cl)(Cl)Cl)n2)C1 (configuration not stated),1.6,2.8,–,–,–,–,91,–,–,–,–,–,–,–,Delta MST [8]: 0.2
ClC(Cl)(Cl)c1nc(NCCCCCN2CCCC2)nc(C(Cl)(Cl)Cl)n1,–,2.3,8.6,–,0.4,0,34,–,–,–,–,–,–,0.4 and 0.5,Delta MST [15]: 4.6; Delta MST [18]: 1.2; Delta MST [10]: 3
N=C(Nc1ccc(Cl)cc1)Nc1nc(NCCCN2CCCCCC2)nc(C(Cl)(Cl)Cl)n1,–,–,–,7.5 and 4.7,–,–,240,2.7 and 1.5,0.7,4.5,1.1 and 0.7,1.7,–,–,Delta MST [19]: 18.7; Delta MST [20]: 7.2
N=C(Nc1ccc(Cl)cc1)Nc1nc(NCCCCCN2CCCC2)nc(C(Cl)(Cl)Cl)n1,–,–,–,7.2 and 7,–,–,145,3.8 and 4.2,0.6,4,1 and 1.2,2.2,–,–,Delta MST [9]: 0.7
CN(C)CCCNc1nc(/N=C(\N)Nc2ccc(Cl)cc2)nc(C(Cl)(Cl)Cl)n1,–,–,–,–,–,–,–,5.4 and 6.5,–,–,4.2 and 4.6,–,–,–,–
CN(C)CCCNc1nc(C(Cl)(Cl)Cl)nc(C(Cl)(Cl)Cl)n1,0.3,–,6.8,–,2.2,–,125,–,–,–,–,–,4 and 4.7,2 and 2.1,Delta MST ([4]; 640 mg/kg): 16.3 and 17.7; Delta MST [21]: 1.2
CN(C)CCCNc1nc(/N=C(\N)Nc2ccc(Cl)c(Cl)c2)nc(C(Cl)(Cl)Cl)n1,–,–,–,–,–,–,100,–,–,–,–,–,12.3 and 12.6,1.3 and 1.6,Delta MST [19]: 0.2; Delta MST ([4]; 640 mg/kg): 15.5 and 14.9
N=C(Nc1ccc(Cl)cc1)Nc1nc(NCCCCN2CCCC2)nc(C(Cl)(Cl)Cl)n1,–,–,–,5.8 and 5.3,–,–,108,3.8 and 4.8,0.2,4.8,0.4 and 1,2.2,–,–,–
